Experimental data reported in ChEMBL document CHEMBL3425431, “Synthesis and evaluation of constrained phosphoramidate inhibitors of prostate-specific membrane antigen” (Bioorg Med Chem Lett, 2015).
Active and inactive are the calls of the source. The calls are words filed in the database; no cut-off is given here.

Tests used:
[1] = Drug uptake in tumor of human CWR22Rv1 cells xenografted athymic NCr-nu/nu mouse at 200 uCi, iv after 2 hrs by microPET/CT imaging method; assay type: ADME, organism-based, CWR22R; conditions: in vivo
[2] = test system: Kidney; assay: Drug uptake in kidney of human CWR22Rv1 cells xenografted athymic NCr-nu/nu mouse at 200 uCi, iv after 2 hrs by microPET/CT imaging method; assay type: ADME, organism-based; conditions: in vivo
[3] = test system: Mus musculus; assay: Drug uptake in other organs of human CWR22Rv1 cells xenografted athymic NCr-nu/nu mouse at 200 uCi, iv after 2 hrs by microPET/CT imaging method; assay type: ADME, organism-based; conditions: in vivo
[4] = molecular target: T1, Glutamate carboxypeptidase 2 (Homo sapiens, UniProt Q04609); assay: Inhibition of PSMA (unknown origin) incubated for 15 mins using PABGgG substrate by HPLC method
Target sequence in this assay (Q04609 whole entry): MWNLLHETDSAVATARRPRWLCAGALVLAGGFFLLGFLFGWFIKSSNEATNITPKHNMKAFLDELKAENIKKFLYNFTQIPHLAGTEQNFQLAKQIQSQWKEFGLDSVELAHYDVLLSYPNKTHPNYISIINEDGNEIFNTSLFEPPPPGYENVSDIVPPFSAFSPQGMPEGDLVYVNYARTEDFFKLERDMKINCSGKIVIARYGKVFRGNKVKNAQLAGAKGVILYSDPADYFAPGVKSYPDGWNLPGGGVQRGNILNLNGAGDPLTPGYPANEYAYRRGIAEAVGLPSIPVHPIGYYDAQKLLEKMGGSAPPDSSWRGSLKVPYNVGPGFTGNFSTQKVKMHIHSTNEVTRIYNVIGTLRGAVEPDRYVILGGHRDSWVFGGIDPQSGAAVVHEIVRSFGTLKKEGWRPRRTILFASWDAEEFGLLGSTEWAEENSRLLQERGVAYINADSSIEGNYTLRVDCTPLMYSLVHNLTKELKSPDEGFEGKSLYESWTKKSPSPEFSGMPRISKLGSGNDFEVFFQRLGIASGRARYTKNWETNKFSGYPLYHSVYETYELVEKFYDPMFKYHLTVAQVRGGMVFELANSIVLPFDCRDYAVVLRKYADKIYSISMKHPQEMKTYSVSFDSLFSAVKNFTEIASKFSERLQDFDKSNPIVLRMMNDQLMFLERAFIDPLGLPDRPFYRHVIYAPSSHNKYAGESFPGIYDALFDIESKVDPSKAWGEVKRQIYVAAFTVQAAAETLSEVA

[5] = molecular target: T1, Glutamate carboxypeptidase 2; conditions: 0.1 uM
Target sequence in this assay (Q04609 whole entry, looked up): as the sequence (Q04609 whole entry) above
Description: Slow reversible inhibition of PSMA (unknown origin) at 0.1 uM pre-incubated for 10 mins before PABGgG substrate addition by HPLC method

[6] = Half life in pH 4.5 buffer at 50 degC by [31P] NMR spectrometry; assay type: physicochemical
[7] = Half life in pH 4.5 buffer at 70 degC by [31P] NMR spectrometry; assay type: physicochemical

Row | IC50 [4] | inhibition [5] | Compound | also measured
1 | – | – | O=C(O)CC[C@H](NP(=O)(O)O[C@@H]1C[C@@H](C(=O)O)N(C(=O)CC[C@H](NC(=O)CCCCCNC(=O)c2ccc(F)cc2)C(=O)O)C1)C(=O)O.O=C(O)CC[C@H](NP(=O)(O)O[C@@H]1C[C@@H](C(=O)O)N(C(=O)CC[C@H](NC(=O)CCCCCNC(=O)c2ccc([18F])cc2)C(=O)O)C1)C(=O)O | Drug uptake [1]: Active; Drug uptake [2]: Active; Drug uptake [3]: Active
2 | 1.3 nM | – | O=C(O)CC[C@H](NP(=O)(O)OCCC[C@H](NC(=O)CC[C@H](NC(=O)c1ccc(F)cc1)C(=O)O)C(=O)O)C(=O)O | –
3 | 79 nM | Active | NCCCCCC(=O)N[C@@H](CCC(=O)N1C[C@H](OP(=O)(O)N[C@@H](CCC(=O)O)C(=O)O)C[C@H]1C(=O)O)C(=O)O | –
4 | 1.3 nM | Active | O=C(O)CC[C@H](NP(=O)(O)O[C@@H]1C[C@@H](C(=O)O)N(C(=O)CC[C@H](NC(=O)CCCCCNC(=O)c2ccc(F)cc2)C(=O)O)C1)C(=O)O | half-life [6]: 105 min; half-life [7]: 32 min
5 | 357 nM | Active | N[C@@H](CCC(=O)N1C[C@@H](OP(=O)(O)N[C@@H](CCC(=O)O)C(=O)O)C[C@@H]1C(=O)O)C(=O)O | –
6 | 27 nM | – | N[C@@H](CCC(=O)N[C@@H](CCCOP(=O)(O)N[C@@H](CCC(=O)O)C(=O)O)C(=O)O)C(=O)O | –
7 | 11 nM | Active | O=C(O)CC[C@H](NP(=O)(O)O[C@H]1C[C@H](C(=O)O)N(C(=O)CC[C@H](NC(=O)CCCCCNC(=O)c2ccc(F)cc2)C(=O)O)C1)C(=O)O | –
8 | 19 nM | – | NCCCCCC(=O)N[C@@H](CCC(=O)N[C@@H](CCCOP(=O)(O)N[C@@H](CCC(=O)O)C(=O)O)C(=O)O)C(=O)O | –
9 | 60 nM | Active | N[C@@H](CCC(=O)N1C[C@H](OP(=O)(O)N[C@@H](CCC(=O)O)C(=O)O)C[C@H]1C(=O)O)C(=O)O | –
10 | 3 nM | Active | O=C(O)CC[C@H](NP(=O)(O)O[C@H]1C[C@H](C(=O)O)N(C(=O)CC[C@H](NC(=O)c2ccc(F)cc2)C(=O)O)C1)C(=O)O | –
11 | 112 nM | Active | NCCCCCC(=O)N[C@@H](CCC(=O)N1C[C@@H](OP(=O)(O)N[C@@H](CCC(=O)O)C(=O)O)C[C@@H]1C(=O)O)C(=O)O | –
12 | 2.6 nM | Active | O=C(O)CC[C@H](NP(=O)(O)O[C@@H]1C[C@@H](C(=O)O)N(C(=O)CC[C@H](NC(=O)c2ccc(F)cc2)C(=O)O)C1)C(=O)O | –

Row | Compound | IC50 [4] | inhibition [5] | also measured
13 | O=C(O)CC[C@H](NP(=O)(O)OCCC[C@H](NC(=O)CC[C@H](NC(=O)CCCCCNC(=O)c1ccc(F)cc1)C(=O)O)C(=O)O)C(=O)O [CTT-1057] | 0.4 nM | – | half-life [6]: 75 min; half-life [7]: 12 min
